For orientation: melting point means the temperature, or range, at which the solid turns liquid.

Compound `CCCc1ccc(C=C2CN(Cc3cn(CCC)nn3)CC(=Cc3ccc(CCC)cc3)C2=O)cc1` [15a, 1-[(1-Propyl-1H-1,2,3-triazol-4-yl)methyl]-3,5-bis(4-propylbenzylidene)piperidin-4-one] showed a melting point of 133 °C.

`Cc1ccc(S(=O)(=O)N2C/C(=C\c3ccc(C(C)(C)C)cc3)C(=O)/C(=C/c3ccc(C(C)(C)C)cc3)C2)cc1` [3g, 3,5-Bis(4-tert-butylbenzylidene)-1-tosylpiperidin-4-one] displayed a melting point of 220 °C.

`CCCc1ccc(/C=C2\CN(S(=O)(=O)c3ccccc3)C/C(=C\c3ccc(CCC)cc3)C2=O)cc1` [4d, 1-(Phenylsulfonyl)-3,5-bis(4-propylbenzylidene)piperidin-4-one]: the melting point was determined as 153 °C.

As to `Cc1ccc(/C=C2\CN(Cc3ccccc3)C/C(=C\c3ccc(C)cc3)C2=O)cc1` [5a, 1-Benzyl-3,5-bis(4-methylbenzylidene)piperidin-4-one], the melting point was 170 °C.

In the case of `CCCn1cc(CN2CC(=Cc3ccc(CC)cc3)C(=O)C(=Cc3ccc(CC)cc3)C2)nn1` [12a, 3,5-Bis(4-ethylbenzylidene)-1-((1-propyl-1H-1,2,3-triazol-4-yl)methyl)piperidin-4-one], the melting point is 149 °C.

`COc1ccc(/C=C2\CN(S(=O)(=O)c3ccccc3)C/C(=C\c3ccc(OC)cc3)C2=O)cc1` [4h, 3,5-Bis(4-methoxybenzylidene)-1-(phenylsulfonyl)piperidin-4-one] came in with a melting point of 217 °C.

Take `CCCCc1ccc(/C=C2\CN(S(=O)(=O)c3ccc(C)cc3)C/C(=C\c3ccc(CCCC)cc3)C2=O)cc1` [3h, 3,5-Bis(4-butylbenzylidene)-1-tosylpiperidin-4-one]: the melting point turned out to be 148 °C.

In turn, `CCN1C/C(=C\c2ccc(C(C)(C)C)cc2)C(=O)/C(=C/c2ccc(C(C)(C)C)cc2)C1` [6i, 3,5-Bis(4-tert-butylbenzylidene)-1-ethylpiperidin-4-one] yielded a melting point of 111 °C.

In turn, `Cc1ccc(S(=O)(=O)N2C/C(=C\c3ccc(Cl)cc3)C(=O)/C(=C/c3ccc(Cl)cc3)C2)cc1` [3e, 3,5-Bis(4-chlorobenzylidene)-1-tosylpiperidin-4-one] returned a melting point of 209 °C.

The compound `CC(C)(C)c1ccc(/C=C2\CN(S(=O)(=O)c3ccccc3)C/C(=C\c3ccc(C(C)(C)C)cc3)C2=O)cc1` [4f, 3,5-Bis(4-tert-butylbenzylidene)-1-(phenylsulfonyl)piperidin-4-one] yielded a melting point of 194 °C.

In turn, `CCCCCn1cc(CN2CC(=Cc3ccc(C(C)(C)C)cc3)C(=O)C(=Cc3ccc(C(C)(C)C)cc3)C2)nn1` [14c, 3,5-Bis(4-tert-butylbenzylidene)-1-[(1-pentyl-1H-1,2,3-triazol-4-yl)methyl]piperidin-4-one] registered a melting point of 146 °C.

For the compound `CC(C)c1ccc(/C=C2\CN(Cc3ccccc3)C/C(=C\c3ccc(C(C)C)cc3)C2=O)cc1` [5e, 1-Benzyl-3,5-bis(4-isopropylbenzylidene)piperidin-4-one], the melting point is 157 °C.

In turn, `CCc1ccc(/C=C2\CN(S(=O)(=O)c3ccc(C)cc3)C/C(=C\c3ccc(CC)cc3)C2=O)cc1` [3b, 3,5-Bis(4-etbylbenzylidene)-1-tosylpiperidin-4-one] came in with a melting point of 165 °C.

In turn, `CCCCc1ccc(/C=C2\CN(Cc3ccccc3)C/C(=C\c3ccc(CCCC)cc3)C2=O)cc1` [5f, 1-Benzyl-3,5-bis(4-butylbenzylidene)piperidin-4-one] gave a melting point of 104 °C.

`Cc1ccc(/C=C2\CN(S(=O)(=O)c3ccc(C)cc3)C/C(=C\c3ccc(C)cc3)C2=O)cc1` [3d, 3,5-Bis(4-methylbenzylidene)-1-tosylpiperidin-4-one] displayed a melting point of 187 °C.

The compound `O=C1/C(=C/c2ccc(F)cc2)CN(Cc2ccccc2)C/C1=C\c1ccc(F)cc1` [5j, 1-Benzyl-3,5-bis(4-fluorobenzylidene)piperidin-4-one] had a melting point of 159 °C.

Take `CCCCCn1cc(CN2CC(=Cc3ccc(CC)cc3)C(=O)C(=Cc3ccc(CC)cc3)C2)nn1` [12c, 3,5-Bis(4-ethylbenzylidene)-1-((1-pentyl-1H-1,2,3-triazol-4-yl)methyl)piperidin-4-one]: the melting point is 156 °C.

Compound `CCc1ccc(/C=C2\CN(CC)C/C(=C\c3ccc(CC)cc3)C2=O)cc1` [6e, 1-Ethyl-3,5-bis(4-ethylbenzylidene)piperidin-4-one] had a melting point of 178 °C.

On to `CCCCCn1cc(CN2CC(=Cc3ccc(CCCC)cc3)C(=O)C(=Cc3ccc(CCCC)cc3)C2)nn1` [16c, 3,5-Bis(4-butylbenzylidene)-1-[(1-pentyl-1H-1,2,3-triazol-4-yl)methyl]piperidin-4-one], for which the melting point worked out at 145 °C.

As to `CCCn1cc(CN2CC(=Cc3ccc(C(C)C)cc3)C(=O)C(=Cc3ccc(C(C)C)cc3)C2)nn1` [13a, 3,5-Bis(4-isopropylbenzylidene)-1-((1-propyl-1H-1,2,3-triazol-4-yl)methyl)piperidin-4-one], the melting point stood at 144 °C.

With `CCCc1ccc(/C=C2\CN(S(=O)(=O)c3ccc(C)cc3)C/C(=C\c3ccc(CCC)cc3)C2=O)cc1` [3c, 3,5-Bis(4-propylbenzylidene)-1-tosylpiperidin-4-one], the melting point was 157 °C.

As for `CC(C)(C)c1ccc(/C=C2\CN(Cc3ccccc3)C/C(=C\c3ccc(C(C)(C)C)cc3)C2=O)cc1` [5g, 1-Benzyl-3,5-bis(4-tert-butylbenzylidene)piperidin-4-one], the melting point was 167 °C.

`C#CCN1CC(=Cc2ccc(CCC)cc2)C(=O)C(=Cc2ccc(CCC)cc2)C1` [10e, 1-(Prop-2-ynyl)-3,5-bis(4-propylbenzylidene)piperidin-4-one] showed a melting point of 96 °C.

In the case of `COc1ccc(/C=C2\CN(S(=O)(=O)c3ccc(C)cc3)C/C(=C\c3ccc(OC)cc3)C2=O)cc1` [3f, 3,5-Bis(4-methoxybenzylidene)-1-tosylpiperidin-4-one], the melting point was 183 °C.

With `CCCn1cc(CN2CC(=Cc3ccc(C)cc3)C(=O)C(=Cc3ccc(C)cc3)C2)nn1` [11a, 3,5-Bis(4-methylbenzylidene)-1-((1-propyl-1H-1,2,3-triazol-4-yl)methyl)piperidin-4-one], the melting point turned out to be 165 °C.

On to `CCCn1cc(CN2CC(=Cc3ccc(C(C)(C)C)cc3)C(=O)C(=Cc3ccc(C(C)(C)C)cc3)C2)nn1` [14a, 3,5-Bis(4-tert-butylbenzylidene)-1-((1-propyl-1H-1,2,3-triazol-4-yl)methyl)piperidin-4-one], for which the melting point came to 182 °C.

As to `CCc1ccc(/C=C2\CN(S(=O)(=O)c3ccccc3)C/C(=C\c3ccc(CC)cc3)C2=O)cc1` [4b, 3,5-Bis(4-ethylbenzylidene)-1-(phenylsulfonyl)piperidin-4-one], the melting point was determined as 165 °C.

Compound `Cc1ccc(S(=O)(=O)N2C/C(=C\c3ccc(C(C)C)cc3)C(=O)/C(=C/c3ccc(C(C)C)cc3)C2)cc1` [3i, 3,5-Bis(4-isopropylbenzylidene)-1-tosylpiperidin-4-one] gave a melting point of 177 °C.

On to `C#CCN1CC(=Cc2ccc(C(C)(C)C)cc2)C(=O)C(=Cc2ccc(C(C)(C)C)cc2)C1` [10d, 3,5-Bis(4-tert-butylbenzylidene)-1-(prop-2-ynyl)piperidin-4-one], for which the melting point is 182 °C.

Values taken from US9884825B2, “Curcumin analogs and methods of making and using thereof” (Georgia State University Research Foundation, Inc., priority 2012, dated 2018).
